According to patent US9604973B2, “Anti-cancer polyketide compounds” (priority 2012, dated 2017):
Entries after “also recorded” stand apart in the source; their conditions may differ.

Columns and labels:
Assay type in all cases: cell-based, human
CLL cells = assay: Flow cytometry, % specific induced apoptosis (DiOC6/PI) in primary CLL cells; conditions: 48 hours
Method: FIG. 20A-20C: FD-895 and PLAD induce apoptosis in CLL cells but not in normal lymphocytes with a TP53 independent activity: Primary leukemia B cells from CLL (FIG. 20A) patient with del (17p) and Tp53 mutation, (FIG. 20B) patient with wild type p53 and sensitive to F-Ara-A and (FIG. 20C) normal lymphocytes from healthy donor were incubated with FD-895, PLAD and F-Ara-A (0, 10, 100, 1000 10,000 nM) for 48 hours.
FIG. 21: FD-895 and PLAD induce apoptosis in CLL cells not ONLY independently of Tp53 but also independently of SF3B1 mutational status: Primary leukemia B cells from CLL patient with SF3B1 wild, SF3B1 mutation, 17p DEL and normal B and T lymphocytes from healthy donor were incubated with FD-895 and PLAD with 100 nM for 48 hours. After incubation, the samples were harvested and % SIA was measured by flow cytometry as described above. […] Each dots represents number of CLL patient sample and normal B or T cells.
Peripheral blood mononuclear cells (PBMC) from patients with CLL were obtained from the CLL Research Consortium (CRC) tissue bank. The blood samples were collected after obtaining a written informed consent from the patients under a protocol approved by the institutional review board of The University of California, San Diego. All patients met criteria for CLL.^1 CLL B cells and PBMCs were separated from heparinized venous blood of the B-CLL patients by density gradient centrifugation using Ficoll-Hypaque (GE healthcare) as described earlier.^2 The samples that were used had more than 95% positive cells for CD19 and CD5+, as assessed by flow cytometry. CLL B cells were maintained in RPMI 1640 medium supplemented with 10% FBS, 2 mM L-glutamine, and 100 U/mL of penicillin and 100 μg/mL of streptomycin at 37° C. in an atmosphere of 5% CO2.
Apoptotic and viable cells were discriminated via flow cytometry of cells stained with 3,3′ dihexyloxacarbocyanine iodide (DiOC6) (Molecular Probes, Eugene, Oreg., USA) and propidium iodine (Sigma, St Louis, Mo., USA), as described.^3 Using this method viable cells exclude PI and stain brightly positive for DiOC6.

DNAJB1 [1] = assay: RT-PCR of spliced and unspliced mRNA (intron retention) in CLL cells; conditions: 4 hours, FD-895, PLAD 10, 100 nM, bendamustine 33, 100 μM, F-Ara-A 3, 10, 33 μM
Method: FIG. 23: FD-895 and PLAD induced inhibition of splicing in CLL: RT-PCR for analysis of spliced and unspliced mRNAs. CLL cells treated with FD-895, PLAD (10, 100 nM), chemotherapeutic agent like bendamustine (33, 100 μM) and F-Ara-A (3, 10, 33 μM) for 4 hours. RT-PCR for DNAJB1 was performed with primers spanning two exons; products were analyzed on ethidium bromide-stained agarose gels (2%) to visualize the correct size of the unspliced mRNAs. […] The exon structure of DNAJB1 gene is indicated. G, human genomic DNA was used as a control; U, unspliced mRNA; S, spliced mRNA.
CLL cells were treated with 10 and 100 nM of FD-895 and PLAD, 33 and 100 μM of bendamustine and 3, 10, and 33 μM of F-Ara-A for 4 h. Normal B and CLL cells were treated with 100 nM of FD-895 and PLAD and 10 μM of F-Ara-A for 15 minutes, 30 minutes, 1, 2 and 4 h. Total RNA was extracted using mirVana™ miRNA isolation kit (Ambion Life Technology, USA). After DNase treatment, 200 ng total RNA was reverse-transcribed using a SuperScript™ III first-strand synthesis system (Invitrogen). PCR was performed on 10 ng of the obtained cDNA (or human genomic DNA as a control) in 25 μl of reaction mixture containing Plantinum® PCR SuperMix High-fidelity (Invitrogen Life Technology, USA), and 0.1 μM of each primer of the appropriate pair.
PCR conditions were 94° C. for 3 min; 35 cycles of 94° C. for 30 s, 60° C. for 30 s, and 72° C. for 1 min; followed by 72° C. for 5 min. PCR products were separated on a 2% agarose gel and stained with ethidium bromide.

RIOK3 = assay: Quantitative RT-PCR of unspliced mRNA in normal B cells; conditions: 4 hours
Method: (§1) Quantitative RT-PCR using primers specific for each intron quantified unspliced mRNA for DNAJB1 (FIG. 25A) and RIOK3 (FIG. 25B). GAPDH was used for normalization. […] Error bars indicate S.D.
(§2) Normal B cells were purified from buffy coats of healthy volunteers, obtained from San Diego blood bank. Positive isolation with Dynabeads® CD19 pan B and DETACHaBEAD CD19 (Invitrogen Life Technologies, USA) were used to achieve more than 95% purity by flow cytometry analysis.
(§3) CLL cells were treated with 100 nM of FD-895 and PLAD and 10 μM of F-Ara-A for 15 minutes, 1 and 4 h. Normal B and CLL cells were treated with 10, 100, and 1000 nM of FD-895 and PLAD and 10 μM of F-Ara-A for 4 h.
(§4) Extraction of total RNA and cDNA synthesis were performed as described earlier. Unspliced mRNA was quantified using a 7900HT fast Real Time PCR System (Applied Biosystems). The amounts of unspliced mRNA of DNAJB1, and RIOK3 were determined by SYBR green (Power SYBR Green PCR Master Mix, Applied Biosystems) real-time quantitative RT-PCR using specific primers designed for the intron of each gene (see additional information section at the end).
(§5) PCR using 0.2 μM of each primer was performed on 20 ng of the obtained cDNA. PCR conditions were 50° C. for 2 min; 95° C. for 10 min; 35 cycles of 94° C. for 20 s, 55° C. for 20 s, followed by 72° C. for 30 s. The mRNA levels were calculated using 2^−ΔΔCT method.^4 GAPDH was used as a control for normalization.

DNAJB1 [2] = assay: as above; conditions: 4 hours
Method: as §1, §2, §3, §4, §5

DNAJB1 [3] = assay: Quantitative RT-PCR of unspliced mRNA in CLL cells; conditions: for unspliced mRNA of DNAJB1 over time: CLL cells, FD-895, PLAD 100 nM, F-Ara-A 10 μM, 15 min, 1 and 4 hours; for unspliced mRNA of DNAJB1: CLL, 10 nM, 4 hours
Method: FIG. 24: Time-dependent increase of unspliced mRNA by FD-895 and PLAD in CLL: CLL cells were treated with 100 nM of FD-895 and PLAD and 10 μM of F-Ara-A for 15 min, 1 and 4 hours. Quantitative RT-PCR using primers specific for each intron quantified unspliced mRNA for DNAJB1. GAPDH was used for normalization. […] Error bars indicate S.D.
as §1, §3, §4, §5

[4] = CLL patients with 17p DEL, 100 nM
[5] = CLL patients with SF3B1 mutation, 100 nM
[6] = CLL patients with SF3B1 wild, 100 nM
[7] = CLL patients with Tp53 mutation (so in the source)
[8] = CLL patients with del (17p), 0-10,000 nM

Molecule	apoptosis (% SIA) (CLL cells; [4])	apoptosis (% SIA) (CLL cells; [5])	apoptosis (% SIA) (CLL cells; [6])	apoptosis (% SIA) (CLL cells; [7])	apoptosis (% SIA) (CLL cells; [8])	intron retention/splicing inhibition of DNAJB1 (DNAJB1 [1])	unspliced mRNA of RIOK3 (RIOK3)	unspliced mRNA of DNAJB1 (DNAJB1 [2])	unspliced mRNA of DNAJB1 over time (DNAJB1 [3])	unspliced mRNA of DNAJB1 (DNAJB1 [3])
CCC(OC)C(C)C1OC1C(O)C(C)/C=C/C=C(\C)C1OC(=O)CC(O)CCC(C)(O)C(OC(C)=O)/C=C/C1C (centres unmarked) [FD-895]	significant cells death; also recorded: induced apoptosis	significant cells death; also recorded: induced apoptosis	significant cells death	significant death	significant killing	showed intron retention at low concentration	did not show significant increase in unspliced mRNA	did not show significant increase in unspliced mRNA	gradual increase in unspliced mRNA	clear increase in unspliced mRNA
Pladienolide B	significant cells death; also recorded: induced apoptosis	significant cells death; also recorded: induced apoptosis	significant cells death	significant death	significant killing	showed intron retention at low concentration	did not show significant increase in unspliced mRNA	did not show significant increase in unspliced mRNA	gradual increase in unspliced mRNA	clear increase in unspliced mRNA
